Source: PubChem BioAssay AID192 (DTP/NCI, 2004)
Several values for one entry are separate records, joined by “and”; a condition that tells them apart may be missing. Identical values can stand only once. Inconclusive results and toxic doses are left out. How the source made its calls: active means survival T/C of 150% or more; inactive means T/C below 125% in these data.

System: BDF1 mice, B16 melanoma ip, median survival T/C
Assay: NCI In Vivo Anticancer Drug Screen. Data for tumor model B16 Melanoma (intraperitoneal) in B6D2F1 (BDF1) mice
Settings: endpoint: median survival time, schedule: Q01DX009 (ip), higher = longer survival
How it was run: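 Read-out: survival or tumor size, given as treated/control ratio. Controls received vehicle only; animals bore transplantable tumors.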

[1] = dose: 100.0 mg/kg/injection, vehicle: saline with Tween-80
[2] = dose: 200.0 mg/kg/injection, vehicle: saline with Tween-80

Measured: T/C

C/C=C/C=C1/OC(C)=C(C(C)=O)C1=O
inactive: dose: 12.5 mg/kg/injection, vehicle: saline with Tween-80 102 % of control and 111 % of control | dose: 25.0 mg/kg/injection, vehicle: saline with Tween-80 102 % of control | dose: 50.0 mg/kg/injection, vehicle: saline with Tween-80 102 % of control and 110 % of control | [1] 96 % of control and 109 % of control | [2] 104 % of control | dose: 400.0 mg/kg/injection, vehicle: saline with Tween-80 98 % of control

O=c1oc2c(CN3CCCCC3)c(O)ccc2c2c1CCCC2
inactive: dose: 64.0 mg/kg/injection, vehicle: Klucel (hydroxypropylcellulose) (HPC) 112 % of control | dose: 128.0 mg/kg/injection, vehicle: Klucel (hydroxypropylcellulose) (HPC) 98 % of control | dose: 256.0 mg/kg/injection, vehicle: Klucel (hydroxypropylcellulose) (HPC) 106 % of control | dose: 512.0 mg/kg/injection, vehicle: Klucel (hydroxypropylcellulose) (HPC) 93 % of control

Cc1c(C)c2c(c(C)c1O)CCC(C)(CCCC(C)CCCC(C)CCCC(C)C)O2 (stereo not drawn)
inactive: [1] 95 % of control | [2] 90 % of control

Cc1cccc(NC(=O)Nc2ccccc2Cl)n1
inactive: dose: 50.0 mg/kg/injection, vehicle: Klucel (hydroxypropylcellulose) (HPC) 90 % of control | dose: 100.0 mg/kg/injection, vehicle: Klucel (hydroxypropylcellulose) (HPC) 94 % of control | dose: 200.0 mg/kg/injection, vehicle: Klucel (hydroxypropylcellulose) (HPC) 94 % of control

CC(=O)N1CCC2(CC1)SSC1(CCN(C(C)=O)CC1)S2
inactive: dose: 5.0 mg/kg/injection, vehicle: saline with Tween-80 105 % of control | dose: 10.0 mg/kg/injection, vehicle: saline with Tween-80 112 % of control

CCCCn1c(O)c(C=N)c(=O)n(CCCC)c1=O
inactive: dose: 3.12 mg/kg/injection, vehicle: saline with Tween-80 109 % of control | dose: 6.25 mg/kg/injection, vehicle: saline with Tween-80 97 % of control

CC(=O)N(NC(C)C)C(C)C
inactive: dose: 6.25 mg/kg/injection, vehicle: saline 111 % of control | dose: 12.5 mg/kg/injection, vehicle: saline 103 % of control | dose: 25.0 mg/kg/injection, vehicle: saline 99 % of control | dose: 50.0 mg/kg/injection, vehicle: saline 102 % of control
